Data reported in patent publication US9149038B2, “4-amino-6-(heterocyclic)picolinates and 6-amino-2-(heterocyclic)pyrimidine-4-carboxylates and their use as herbicides” (Dow AgroSciences LLC, priority 2013, dated 2015).
Read-outs that look alike come from different tables or passages of the source.

Assays:
Type in all cases: in vivo
[1] = system: Key Broadleaf Weed and Crop Species; assay: Post-Emergent Test II: postemergent herbicidal activity, visual rating after 14 d (Table 7); conditions: post-emergence, 336 h; for pest or weed control at 35 g/ha: 35 g ai/ha; for pest or weed control at 70 g/ha: 70 g ai/ha; for pest or weed control at 140 g/ha: 140 g ai/ha
How it was run: (§1)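 Track-sprayed young seedlings (first/second true leaf) at 187 L/ha across a 2-fold rate series from the high rate down to 1/16×. Kept in greenhouse at 23-29° C day, subirrigated. Injury rated by eye after 14 d, 0 = no injury, 100 = complete kill.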

[2] = system: Key Grass and Sedge Weeds as well as Grass Crops; assay: Post-Emergent Test II: postemergent herbicidal activity, visual rating after 14 d (Table 8); conditions: post-emergence, 336 h; for pest or weed control at 35 g/ha: 35 g ai/ha; for pest or weed control at 70 g/ha: 70 g ai/ha; for pest or weed control at 140 g/ha: 140 g ai/ha
How it was run: as §1

[3] = system: Key Broadleaf and Grass Weed as well as Crop Species; assay: Post-Emergent Test I: postemergent herbicidal activity, visual phytotoxicity rating 10 days after treatment (Table 5); conditions: 4 kg ai/ha; for Visual Growth Reduction (%) 10 Days After Application ECHCG: barnyardgrass (Echinochloa crus-galli); for pest or weed control at 4000 g/ha: post-emergence, 240 h, 10 days after application
Description: Herbicidal evaluations were made visually on a scale of 0 to 100 where 0 represents no activity and 100 represents complete plant death. Post-Emergent Test I: Seeds of test species were obtained from commercial suppliers and planted into a 5″-round pot containing soil-less media mix (Metro-Mix 360®, Sun Gro Horticulture). Postemergence treatments were planted 8-12 days (d) prior to application and cultured in a greenhouse equipped with supplemental light sources to provide a 16 h photoperiod at 24-29° C. All pots were surface irrigated. Approximately 10 milligrams (mg) of each compound were dissolved in 1.3 mL acetone-DMSO (97:3, volume per volume (v/v)) and diluted with 4.1 mL water-isopropanol-crop oil concentrate (78:20:2, v/v/v) containing 0.02% Triton X-155. Treatments were serial diluted with the above formulation solvent to provide 1.85, 0.926, 0.462 and 0.231 milligrams per milliliter (mg/mL) of test compound delivered in 2.7 mL/pot (roughly equivalent to 4.0, 2.0, 1.0, and 0.5 kg/ha, respectively). Formulated compounds were applied using a DeVilbiss® compressed air sprayer at 2-4 pounds per square inch (psi). Following treatment, pots were returned to the greenhouse for the duration of the experiment. All pots were sub-irrigated as needed to provide optimum growing conditions. All pots were fertilized one time per week by subirrigating with Peters Peat-Lite Special® fertilizer (20-10-20). Phytotoxicity ratings were obtained 10 days after treatment postemergence applications. All evaluations were made visually on a scale of 0 to 100 where 0 represents no activity and 100 represents complete plant death and are presented as indicated in Table 4.

[4] = lambsquarters (Chenopodium album), read-out: Visual Growth Reduction (%) 14 Days After Application CHEAL
[5] = oilseed rape, canola (Brassica napus), read-out: Visual Growth Reduction (%) 14 Days After Application BRSNN
[6] = redroot pigweed (Amaranthus retroflexus), read-out: Visual Growth Reduction (%) 14 Days After Application AMARE
[7] = sunflower (Helianthus annuus), read-out: Visual Growth Reduction (%) 14 Days After Application HELAN
[8] = velvetleaf (Abutilon theophrasti), read-out: Visual Growth Reduction (%) 14 Days After Application ABUTH
[9] = wild poinsettia (Euphorbia heterophylla), read-out: Visual Growth Reduction (%) 14 Days After Application EPHHL
[10] = barnyardgrass (Echinochloa crus-galli), read-out: Visual Growth Reduction (%) 14 Days After Application ECHCG
[11] = giant foxtail (Setaria faberi), read-out: Visual Growth Reduction (%) 14 Days After Application SETFA
[12] = maize, corn (Zea mays), read-out: Visual Growth Reduction (%) 14 Days After Application ZEAMX
[13] = rice (Oryza sativa), read-out: Visual Growth Reduction (%) 14 Days After Application ORYSA
[14] = wheat, spring (Triticum aestivum), read-out: Visual Growth Reduction (%) 14 Days After Application TRZAS
[15] = yellow nutsedge (Cyperus esculentus), read-out: Visual Growth Reduction (%) 14 Days After Application CYPES
[16] = giant foxtail (Setaria faberi), read-out: Visual Growth Reduction (%) 10 Days After Application SETFA
[17] = ivyleaf morningglory (Ipomoea hederecea), read-out: Visual Growth Reduction (%) 10 Days After Application IPOHE
[18] = sunflower (Helianthus annuus), read-out: Visual Growth Reduction (%) 10 Days After Application HELAN
[19] = wild oats (Avena fatua), read-out: Visual Growth Reduction (%) 10 Days After Application AVEFA

Nc1c(Cl)c(C(=O)O)nc(-c2cc3c(cc2F)OC(F)(F)O3)c1Cl [Compound 3]
pest or weed control at 35 g/ha [1, 4]: 0 to 29%
pest or weed control at 70 g/ha [1, 4]: 0 to 29%
pest or weed control at 140 g/ha [1, 4]: 45 to 59%
pest or weed control at 35 g/ha [1, 5]: 0 to 29%
pest or weed control at 70 g/ha [1, 5]: 0 to 29%
pest or weed control at 140 g/ha [1, 5]: 0 to 29%
pest or weed control at 35 g/ha [1, 6]: 0 to 29%
pest or weed control at 70 g/ha [1, 6]: 95 to 100%
pest or weed control at 140 g/ha [1, 6]: 95 to 100%
pest or weed control at 35 g/ha [1, 7]: 0 to 29%
pest or weed control at 70 g/ha [1, 7]: 0 to 29%
pest or weed control at 140 g/ha [1, 7]: 85 to 94%
pest or weed control at 35 g/ha [1, 8]: 0 to 29%
pest or weed control at 70 g/ha [1, 8]: 0 to 29%
pest or weed control at 140 g/ha [1, 8]: 0 to 29%
pest or weed control at 35 g/ha [1, 9]: 0 to 29%
pest or weed control at 70 g/ha [1, 9]: 0 to 29%
pest or weed control at 140 g/ha [1, 9]: 0 to 29%
pest or weed control at 35 g/ha [2, 10]: 0 to 29%
pest or weed control at 70 g/ha [2, 10]: 0 to 29%
pest or weed control at 140 g/ha [2, 10]: 0 to 29%
pest or weed control at 35 g/ha [2, 11]: 0 to 29%
pest or weed control at 70 g/ha [2, 11]: 0 to 29%
pest or weed control at 140 g/ha [2, 11]: 0 to 29%
pest or weed control at 35 g/ha [2, 12]: 0 to 29%
pest or weed control at 70 g/ha [2, 12]: 0 to 29%
pest or weed control at 140 g/ha [2, 12]: 0 to 29%
pest or weed control at 35 g/ha [2, 13]: 0 to 29%
pest or weed control at 70 g/ha [2, 13]: 0 to 29%
pest or weed control at 140 g/ha [2, 13]: 0 to 29%
pest or weed control at 35 g/ha [2, 14]: 0 to 29%
pest or weed control at 70 g/ha [2, 14]: 0 to 29%
pest or weed control at 140 g/ha [2, 14]: 0 to 29%
pest or weed control at 35 g/ha [2, 15]: 0 to 29%
pest or weed control at 70 g/ha [2, 15]: 0 to 29%
pest or weed control at 140 g/ha [2, 15]: 0 to 29%
Visual Growth Reduction (%) 10 Days After Application ECHCG [3]: C (75-84)
pest or weed control at 4000 g/ha [3, 16]: 75 to 84%
pest or weed control at 4000 g/ha [3, 17]: 75 to 84%
pest or weed control at 4000 g/ha [3, 18]: 75 to 84%
pest or weed control at 4000 g/ha [3, 19]: 75 to 84%

Nc1c(Cl)c(C(=O)O)nc(-c2ccc3c(c2F)OC(F)(F)O3)c1Cl [Compound 5]
pest or weed control at 35 g/ha [1, 4]: 0 to 29%
pest or weed control at 70 g/ha [1, 4]: 0 to 29%
pest or weed control at 140 g/ha [1, 4]: 0 to 29%
pest or weed control at 35 g/ha [1, 5]: 45 to 59%
pest or weed control at 70 g/ha [1, 5]: 60 to 74%
pest or weed control at 140 g/ha [1, 5]: 60 to 74%
pest or weed control at 35 g/ha [1, 6]: 0 to 29%
pest or weed control at 70 g/ha [1, 6]: 0 to 29%
pest or weed control at 140 g/ha [1, 6]: 0 to 29%
pest or weed control at 35 g/ha [1, 7]: 30 to 44%
pest or weed control at 70 g/ha [1, 7]: 30 to 44%
pest or weed control at 140 g/ha [1, 7]: 45 to 59%
pest or weed control at 35 g/ha [1, 8]: 0 to 29%
pest or weed control at 70 g/ha [1, 8]: 0 to 29%
pest or weed control at 140 g/ha [1, 8]: 0 to 29%
pest or weed control at 35 g/ha [1, 9]: 0 to 29%
pest or weed control at 70 g/ha [1, 9]: 0 to 29%
pest or weed control at 140 g/ha [1, 9]: 0 to 29%
pest or weed control at 35 g/ha [2, 10]: 0 to 29%
pest or weed control at 70 g/ha [2, 10]: 0 to 29%
pest or weed control at 140 g/ha [2, 10]: 0 to 29%
pest or weed control at 35 g/ha [2, 11]: 0 to 29%
pest or weed control at 70 g/ha [2, 11]: 0 to 29%
pest or weed control at 140 g/ha [2, 11]: 0 to 29%
pest or weed control at 35 g/ha [2, 12]: 0 to 29%
pest or weed control at 70 g/ha [2, 12]: 0 to 29%
pest or weed control at 140 g/ha [2, 12]: 0 to 29%
pest or weed control at 35 g/ha [2, 13]: 0 to 29%
pest or weed control at 70 g/ha [2, 13]: 0 to 29%
pest or weed control at 140 g/ha [2, 13]: 0 to 29%
pest or weed control at 35 g/ha [2, 14]: 0 to 29%
pest or weed control at 70 g/ha [2, 14]: 0 to 29%
pest or weed control at 140 g/ha [2, 14]: 0 to 29%
pest or weed control at 35 g/ha [2, 15]: 0 to 29%
pest or weed control at 70 g/ha [2, 15]: 0 to 29%
pest or weed control at 140 g/ha [2, 15]: 0 to 29%
Visual Growth Reduction (%) 10 Days After Application ECHCG [3]: G (0-29)
pest or weed control at 4000 g/ha [3, 16]: 75 to 84%
pest or weed control at 4000 g/ha [3, 17]: 95 to 100%
pest or weed control at 4000 g/ha [3, 18]: 95 to 100%
pest or weed control at 4000 g/ha [3, 19]: 0 to 29%
